Converted amounts (≈) assume the structure as drawn.
What was measured:
[1] = test system: HIV-1 AZT-resistant strain 018c P24 antigen; assay: Inhibition of HIV-1 018c P24 antigen in PBMC cell culture; type: cell-based; settings: for EC50: Human immunodeficiency virus 1, PBMC, 2 h, PBMC, administration after adsorbing 2 hours; for EC50 / SI: 018c; for SI: SI=CC50/EC50
Procedure: (§1) Collect cells with curette, infect cells with 10^−2 AZT sensitive (018a) or AZT resistant (018c) virus strain liquid, and adsorb for 2 hours, Wash off unabsorbed virus with 1640 culture medium without serum, prepare cells infected by virus to 1×10^6/ml with culture solution, and inoculate on 96-pore culture plate, 100 μl/pore. […] Set cell control group and virus infected cell control group. Incubate under 37° C. and 5% CO2. On the fourth day (96 hours), pipette out the supernatant liquid and store under −20° C. for determination of HIV-1 P24 antigen titer and calculation of drug inhibitory action. Add MTT staining to cells for determination of cytotoxicity. Determination of cytotoxicity by MTT staining: Add 10 μl of 5 mg/ml MTT stain into each pore, continue to incubate under 37° C., 5% CO2 and saturated humidity for 4 hours. […] Determine the HIV-1 P24 antigen titer according to the operation procedure provided by the HIV-1 P24 antigen reagent kit. Compare the drug-added group with virus control group. […] Calculation method of 50% toxic concentration (CC50), 50% effective concentration (EC50) and selection index (SI):
(3) Calculation Method of Selection Index (SI) on HIV-1 P24 Antigen in Cell Culture SI=CC50/EC50

MT-4 cells [2] = assay: Cytotoxicity in MT-4 cell culture by MTT staining method; type: cell-based, human
Procedure: (§2) Set virus TCID50 determination group and cell control group. Each concentration is duplicated in two pore. Incubate under 37° C., 5% CO2 and saturated humidity in an incubator. Add MTT into each pore of cell culture plate pipetted supernatant liquid to stain, continue to incubate for 4 hours, add decolorizing liquid, determine OD value at 570 nm wavelength by enzyme-linked apparatus, and [NT]50 and TC0 as above. […] [formula]

[3] = as above; type: cell-based, human; settings: human, MT-4 cells infected with HIV-1 IIIB; MT-4 cell culture, MTT staining; read-out: Cytotoxicity TC50, MTT
Procedure: as §2

[4] = MTT toxicity on PBMC infected by HIV-1 AZT-resistant strain 018c; settings: human
Procedure: as §1, with “(SI): […]” for “(SI):”

MT-4 cells [5] = assay: Cytotoxicity in MT-4 cell culture by cytopathic method (CPE); type: cell-based, human
Procedure: (§3) Set virus TCID50 determination group and cell control group. Each concentration is duplicated in two pore. Incubate under 37° C., 5% CO2 and saturated humidity in an incubator. Daily observe the cytopathy in above culture plate by microscope, record the degree of cytopathy with routine method, and calculate the 50% toxic concentration (TC50) and maximum nontoxic concentration (TC0) of drug according to Reed & Muench method. […] [formula]

[6] = as above; type: cell-based, human; settings: human, MT-4 cells infected with HIV-1 IIIB, read-out: Cytotoxicity TC50, CPE
Procedure: as §3

CC#C[C@]1(O)CC[C@H]2[C@@H]3CCC4=CC(=O)CCC4=C3[C@@H](c3ccc(N(C)C4CCCCC4)cc3)C[C@@]21C [Cymipristone, 11β-[4-(N-methyl-N-cyclohexylamino)phenyl]-17α-(1-propynyl)-17β-hydroxyl-4,9-estradiene-3-one]
EC50 ([1]; Average): 7.9 µg/mL (≈ 15.9 µM) | EC50 ([1]; Experiment 1): 8.42 µg/mL (≈ 16.9 µM) | EC50 ([1]; Experiment 2): 7.38 µg/mL (≈ 14.8 µM) | SI ([1]; Average): 13.18 | SI ([1]; Experiment 1): 12.21 | SI ([1]; Experiment 2): 14.15 | Cross resistance with zidovudine (AZT) (in words) ([1]; conclusion): no cross resistance | Cytotoxicity TC50, MTT (MT-4 cells [2]; MT-4 cell culture, MTT staining): 30.26 µg/mL | Toxicity on cultured human T-lymphocyte MT-4 (in words) (MT-4 cells [2]; conclusion): no significant toxicity | CC50 at 96 h [3]: 60.9 µM | CC50 at 96 h ([4]; 50% toxic concentration CC50, Experiment 1): 103 µg/mL (≈ 207 µM) | CC50 at 96 h ([4]; 50% toxic concentration CC50, Experiment 2): 104 µg/mL (≈ 210 µM) | Cytotoxicity TC50, CPE (MT-4 cells [5]): 7.704 µg/mL | CC50 [6]: 15.5 µM
